Reference: paper PMC11786100, “Chronic GIPR agonism results in pancreatic islet GIPR functional desensitisation” (Molecular Metabolism, 2025)

Experiments:
SNAP-tagged mouse GLP-1R = biological target: T1, SNAP-tagged mouse GLP-1R (Mus musculus, UniProt O35659); assay: Internalisation and receptor surface expression assays in AD-293 cells; type: cell-based; details: 10 nM
T1 construct: host or cells: AD-293
T1 sequence (O35659 22-463): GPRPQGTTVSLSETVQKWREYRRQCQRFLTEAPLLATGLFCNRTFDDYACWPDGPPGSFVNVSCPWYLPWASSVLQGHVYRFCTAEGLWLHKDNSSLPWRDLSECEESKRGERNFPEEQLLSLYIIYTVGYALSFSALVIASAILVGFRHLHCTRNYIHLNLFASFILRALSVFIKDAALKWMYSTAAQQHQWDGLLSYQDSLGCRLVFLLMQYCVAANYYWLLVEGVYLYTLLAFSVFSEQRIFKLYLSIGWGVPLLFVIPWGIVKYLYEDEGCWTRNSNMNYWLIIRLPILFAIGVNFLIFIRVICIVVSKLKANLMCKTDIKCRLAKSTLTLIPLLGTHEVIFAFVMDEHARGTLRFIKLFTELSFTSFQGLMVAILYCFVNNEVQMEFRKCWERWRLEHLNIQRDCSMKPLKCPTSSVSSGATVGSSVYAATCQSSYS
Protocol: AD-293 cells were transfected with desired plasmid DNA encoding a SNAP-tagged G-protein coupled receptor (GPCR) 24 h prior to assay. For 1 h internalisation assays, cells were labelled for 10 min with cleavable SNAP-tag probe BG-S-S-649 (New England BioLabs, US). Following 1 h treatment with specified peptide, cells were imaged at baseline and after addition of 2-mercaptoethane sulfonate (Mesna). For 4-hour GPCR surface expression assays, cells were treated with the specified peptide for 4 h, prior to 10-minute labelling with BG-S-S-649 and imaging. Full details are provided in the supplementary methods.
AD-293 cells were added to a 96-well plate and maintained in 200 μl complete DMEM. 150 ng of mouse or human SNAP-tagged plasmid GIPR DNA, or 100 ng of mouse or human SNAP-tagged plasmid GLP-1R DNA was added to each well alongside Lipofectamine 2000 (Thermo Fisher, UK) and left for 24 hours.
For 1 hour internalisation assays, cells were labelled with cleavable SNAP-tag probe BG-S-S-649 (New England BioLabs, US) in complete DMEM for 10 minutes prior to washing and 1 hour treatment with specified peptide, reconstituted in DMEM + 0.1% BSA. […] GPCR internalisation was quantified as the cell fluorescence following Mesna addition (representing internalised GPCR), corrected for the baseline cell fluorescence (representing total cellular GPCR). […]

SNAP-tagged mouse GIPR = biological target: T2, SNAP-tagged mouse GIPR (Mus musculus, UniProt Q0P543); assay: as above; type: cell-based; details: 1 μM, 1-hour treatment, BG-S-S-649/Mesna, n = 3–4
T2 construct: host or cells: AD-293
T2 sequence (Q0P543 19-460): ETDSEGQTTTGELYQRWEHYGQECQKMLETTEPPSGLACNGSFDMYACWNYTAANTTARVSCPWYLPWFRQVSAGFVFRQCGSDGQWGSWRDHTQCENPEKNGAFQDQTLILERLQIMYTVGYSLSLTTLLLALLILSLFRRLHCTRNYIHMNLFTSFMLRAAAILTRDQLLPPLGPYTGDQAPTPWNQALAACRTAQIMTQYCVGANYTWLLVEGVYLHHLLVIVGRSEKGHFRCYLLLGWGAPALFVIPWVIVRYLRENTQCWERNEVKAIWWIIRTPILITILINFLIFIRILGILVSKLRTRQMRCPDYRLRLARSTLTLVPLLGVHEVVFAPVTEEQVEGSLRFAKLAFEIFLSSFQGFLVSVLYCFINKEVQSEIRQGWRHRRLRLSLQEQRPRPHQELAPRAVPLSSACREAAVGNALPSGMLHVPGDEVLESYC
Protocol: AD-293 cells were added to a 96-well plate and maintained in 200 μl complete DMEM. […]
For 4-hour GPCR surface expression assays, cells were treated with specified peptide for 4 hours in complete DMEM prior to labelling with BG-S-S-649. […] GPCR surface expression following peptide treatment was quantified as cell fluorescence as a percentage of cell fluorescence following vehicle treatment.

[1] = test system: lean and HFD-induced obese mice; assay: In vivo GIPR desensitisation: IPGTT and insulin bleeds; design: species or system mouse
Protocol: In all in vivo studies, mice were randomised by body weight into groups. Mice received a 50 μL subcutaneous injection of saline (0.9% sodium chloride) or peptide at a specified dose, diluted in saline. Peptide dosing was in nmol per kg of total body weight. For the assessment of the chronic effects of GIP108, mice were injected daily for 15 days. Body composition was measured by EchoMRI on day −1 and day 15. An intraperitoneal glucose tolerance test (IPGTT) (2 g/kg) was conducted on day 14, following 6 h of fasting and 2 h after peptide injection. Non-fasting plasma leptin (ab199082, Abcam, UK), adiponectin (ab226900, Abcam, UK) and amino acids (ab65347, Abcam, UK) were measured on day 16. For the assessments of in vivo GIPR desensitisation, mice were injected at 17:00 with vehicle or GIP108 (30 nmol/kg) prior to an acute food intake study/IPGTT/insulin bleeds conducted the following day. Full details of the in vivo studies are provided in the supplementary methods.
Mice were fasted at 08:00. For all studies, 20% glucose was administered at 14:00, with the injection volume adjusted to the body weight of the mouse such that each mouse received glucose at 2 g/kg. To assess effects of GIP108 on day 14 of the chronic study, mice were dosed with saline or GIP108 at a specified dose at 12:00. […] Blood glucose measurements were taken via tail vein venesection at baseline, t=15, t=30, t=60, t=90 and t=120 mins. Glucose AUC is calculated using y=0. Glucose readings were measured in mmol/L using the same GlucoRx glucometer.
Mice were fasted at 08:00. At 14:00, mice received an intraperitoneal injection with 20% glucose, with the injection volume adjusted to the body weight of the mouse such that each mouse received glucose at 2 g/kg. […] Blood samples were taken via tail vein venesection at baseline and t=15 minutes following injection.
Leptin, adiponectin and amino acids were quantified following chronic GIP108 administration. Plasma amino acids were measured using the Abcam L-amino acid assay kit (ab65347, Abcam, UK). Plasma adiponectin was measured using the Abcam mouse adiponectin ELISA kit (ab226900, Abcam, UK). Plasma leptin was measured using the Abcam mouse leptin ELISA kit (ab199082, Abcam, UK). All assays were performed according to the manufacturer’s protocol and were read using the SpectraMax i3x Microplate Reader (Molecular Devices, US).

Molecule | receptor internalisation compared to vehicle (SNAP-tagged mouse GLP-1R; 1-hour treatment, n = 3–4) | receptor internalisation (surface expression) compared to vehicle (SNAP-tagged mouse GLP-1R; 4-hours treatment, n = 7–8) | receptor internalisation compared to vehicle (SNAP-tagged mouse GIPR) | effect of GIP108 pre-treatment on hGIP (50 nmol/kg) improvement of glucose tolerance ([1]; GIP108 30 nmol/kg s.c. 21 h prior to IPGTT, lean and HFD-induced obese mice, n = 14–16) | plasma insulin response to GIP/glucose administration after GIP108 pre-treatment ([1]; GIP108 30 nmol/kg s.c. 21 h prior, hGIP 50 nmol/kg, 15 min, lean mice, n = 8)
GLP-1(7–36)·NH2 | significantly increased both mouse and human GLP-1R internalisation | significantly increased both mouse and human GLP-1R internalisation | – | – | –
CC[C@H](C)[C@H](NC(=O)[C@H](CO)NC(=O)[C@H](Cc1ccc(O)cc1)NC(=O)[C@H](CC(=O)O)NC(=O)[C@H](CO)NC(=O)[C@@H](NC(=O)[C@H](Cc1ccccc1)NC(=O)[C@@H](NC(=O)CNC(=O)[C@H](CCC(=O)O)NC(=O)C(C)(C)NC(=O)[C@@H](N)Cc1ccc(O)cc1)[C@@H](C)O)[C@@H](C)CC)C(=O)N[C@@H](C)C(=O)N[C@@H](CC(C)C)C(=O)N[C@@H](CC(=O)O)C(=O)N[C@@H](CCCCN)C(=O)N[C@H](C(=O)N[C@@H](Cc1c[nH]cn1)C(=O)N[C@@H](CCC(N)=O)C(=O)N[C@@H](CCC(N)=O)C(=O)N[C@@H](CC(=O)O)C(=O)N[C@@H](Cc1ccccc1)C(=O)N[C@H](C(=O)N[C@@H](CC(N)=O)C(=O)N[C@@H](Cc1c[nH]c2ccccc12)C(=O)N[C@@H](CC(C)C)C(=O)N[C@@H](CC(C)C)C(=O)N[C@@H](C)C(=O)N[C@@H](CCC(N)=O)C(=O)N[C@@H](CCCCN)C(=O)NCC(=O)N[C@@H](CCCCNC(=O)CC[C@H](NC(=O)CCCCCCCCCCCCCCCCCCC(=O)O)C(=O)O)C(=O)N[C@@H](CCCCN)C(=O)N[C@@H](CC(N)=O)C(=O)N[C@@H](CC(=O)O)C(=O)N[C@@H](Cc1c[nH]c2ccccc12)C(=O)N[C@@H](CCCCN)C(=O)N[C@@H](Cc1c[nH]cn1)C(=O)N[C@@H](CC(N)=O)C(=O)N[C@H](C(=O)N[C@H](C(=O)N[C@@H](CCC(N)=O)C(=O)O)[C@@H](C)O)[C@@H](C)CC)C(C)C)[C@@H](C)CC [GIP108] | – | – | did not increase mouse GIPR internalisation | ability to improve glucose tolerance was reduced | blunted
